Laboratory results: patent publication US11318134B2, “Benzamide compounds” (priority 2018, dated 2022)
Read-outs that look alike come from different tables or passages of the source.

Key:
Bcl-2 [1] = target: T1, Bcl-2 (Homo sapiens (Human), UniProt P10415); assay: Bcl-2 protein family binding assay (Bcl2scan platform), Bcl-2; settings: BIM peptide ligand, 11-point dilution, read-out: Bc1-2 Kd (nm)
Experimental: (§1) E. coli were grown to log-phase and infected with T7 phage from a frozen stock (multiplicity of infection=0.4) and incubated with shaking at 32° C. until lysis (90-150 minutes). The lysates were centrifuged (5,000×g) and filtered (0.2 μm) to remove cell debris. […] The liganded beads were blocked with excess biotin and washed with blocking buffer (SeaBlock (Pierce), 1% BSA, 0.05% Tween 20, 1 mM DTT) to remove unbound ligand and to reduce non-specific phage binding. […] Test compounds were prepared as 100× stocks in 100% DMSO. Kds were determined using an 11-point 3-fold compound dilution series with one DMSO control point. […] The compounds were then diluted directly into the assays such that the final concentration of DMSO was 0.9%. All reactions performed in polypropylene 384-well plates. Each was a final volume of 0.02 ml. […] The BCL2 concentration in the eluates was measured by qPCR. Binding constants (Kds) were calculated with a standard dose-response curve using the Hill equation:
(§2) [formula] The Hill Slope was set to −1. Curves were fitted using a non-linear least square fit with the Levenberg-Marquardt algorithm.

Bcl-XL [2] = target: T2, Bcl-XL (Homo sapiens (Human), UniProt Q07817); assay: Bcl-2 protein family binding assay (Bcl2scan platform), Bcl-XL; settings: BIM peptide ligand, 11-point dilution, read-out: Bc1-XL Kd (nm)
T2 sequence (Q07817 whole entry): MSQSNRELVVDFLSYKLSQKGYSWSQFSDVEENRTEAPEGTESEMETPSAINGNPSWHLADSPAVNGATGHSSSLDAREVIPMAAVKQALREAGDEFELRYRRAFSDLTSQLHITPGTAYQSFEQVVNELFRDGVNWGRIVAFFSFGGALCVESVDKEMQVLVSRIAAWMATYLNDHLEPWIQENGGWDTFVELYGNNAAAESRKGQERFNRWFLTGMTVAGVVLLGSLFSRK
Experimental: as §1, §2

Bcl-2 [3] = target: T1, Bcl-2; assay: Bcl-2 HTRF assay (FAM-Bak peptide); assay type: binding; settings: read-out: Bc1-2 IC50
Bcl-XL [4] = target: T2, Bcl-XL; assay: Bcl-XL HTRF assay (FAM-Bad peptide); assay type: binding; settings: read-out: Bc1-XL IC50
RS4;11 cells = assay: RS4;11 cell proliferation assay (CellTiter-Glo); assay type: cell-based; settings: Homo sapiens, RS4-11, 48 h, read-out: RS4;11 (nM), CTG IC50
Experimental: (§3) Cell proliferation was measured using the CellTiter-Glo® Luminescent Cell Viability Assay. The assay involved the addition of a single reagent (CellTiter-Glo® Reagent) directly to cells cultured in serum-supplemented medium.
(§4) Each compound evaluated was prepared as a DMSO stock solution (10 mM). Compounds were tested in duplicate on each plate, with a 10-point serial dilution curve (1:3 dilution). Compound treatment (1.0 μL) was added from the compound dilution plate to the cell plate. The highest compound concentration was 10 μM (final), with a 0.1% final DMSO concentration. Plates were then incubated at 37° C., 5% CO2. After 48 h of compound treatment for RS4;11 or 72 h for NCI-H1963, cell plates were equilibrated at rt for approximately 30 mins. An equi-volume amount of CellTiter-Glo® Reagent (40 μL) was added to each well. […] Luminescence was recorded using a Envision plate reader according to CellTiter-Glo protocol. IC50 of each compound was calculated using GraphPad Prism by nonlinear regression analysis.

NCI-H1963 cells = assay: NCI-H1963 cell proliferation assay (CellTiter-Glo); assay type: cell-based; settings: Homo sapiens, NCI-H1963, 72 h, read-out: H1963 (nM), CTG IC50
Experimental: as §3, §4

[5] = HTRF, 4 nM Bcl-2, 100 nM FAM-Bak peptide
[6] = HTRF, 3 nM Bcl-XL, 40 nM FAM-Bad peptide

T1 sequence (P10415 whole entry): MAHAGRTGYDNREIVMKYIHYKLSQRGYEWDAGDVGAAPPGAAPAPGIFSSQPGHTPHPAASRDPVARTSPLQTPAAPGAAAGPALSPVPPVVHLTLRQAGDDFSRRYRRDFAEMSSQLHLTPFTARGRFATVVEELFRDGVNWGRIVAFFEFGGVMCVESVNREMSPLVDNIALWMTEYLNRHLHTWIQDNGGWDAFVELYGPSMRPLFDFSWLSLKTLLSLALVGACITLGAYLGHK

SMILES | Kd (Bcl-2 [1]) | Kd (Bcl-XL [2]) | IC50 (Bcl-2 [3]; [5]) | IC50 (Bcl-XL [4]; [6]) | IC50 (RS4;11 cells) | IC50 (Bcl-2 [3]) | IC50 (Bcl-XL [4]) | IC50 (NCI-H1963 cells)
CC1(C)CCC(CN2CCN(c3ccc(C(=O)NS(=O)(=O)c4ccc(NCC5(F)CCOCC5)c([N+](=O)[O-])c4)c(Oc4cnc5[nH]ccc5c4)c3)CC2)=C(C23CC(C)(C2)C3)C1 [Example 15, 2-(1H-pyrrolo[2,3-b]pyridin-5-yloxy)-4-(4-((4,4-dimethyl-2-(3-methylbicyclo[1.1.1]pentan-1-yl)cyclohex-1-enyl)methyl)piperazin-1-yl)-N-(4-((4-fluorotetrahydro-2H-pyran-4-yl)methylamino)-3-nitrophenylsulfonyl)benzamide] | < 10 nM | > 100 nM | ≤ 10 nM | ≥ 100 nM | < 100 nM | – | – | –
CC1(C)CCC(CN2CCN(c3ccc(C(=O)NS(=O)(=O)c4ccc(NC[C@H]5CC[C@](C)(O)CC5)c([N+](=O)[O-])c4)c(Oc4cnc5[nH]ccc5c4)c3)CC2)=C(C23CC(C)(C2)C3)C1 [Example 20, 2-(1H-pyrrolo[2,3-b]pyridin-5-yloxy)-4-(4-((4,4-dimethyl-2-(3-methylbicyclo[1.1.1]pentan-1-yl)cyclohex-1-enyl)methyl)piperazin-1-yl)-N-(4-(((1r,4r)-4-hydroxy-4-methylcyclohexyl)methylamino)-3-nitrophenylsulfonyl)benzamide] | < 10 nM | > 100 nM | ≤ 10 nM | ≥ 100 nM | < 100 nM | – | – | –
CC1(C)CCC(CN2CCN(c3ccc(C(=O)NS(=O)(=O)c4ccc(NC[C@H]5CC[C@](C)(O)CC5)c([N+](=O)[O-])c4)c(Oc4cnc5[nH]ccc5c4)c3)CC2)=C(C23CC(C(F)F)(C2)C3)C1 [Example 34, 2-((1H-pyrrolo[2,3-b]pyridin-5-yl)oxy)-4-(4-((2-(3-(difluoromethyl)bicyclo[1.1.1]pentan-1l-yl)-4,4-dimethylcyclohex-1-en-1-yl)methyl)piperazin-1-yl)-N-((4-((((1r,4r)-4-hydroxy-4-methylcyclohexyl)methyl)amino)-3-nitrophenyl)sulfonyl)benzamide] | < 10 nM | > 100 nM | ≤ 10 nM | 10 to 100 nM | < 100 nM | – | – | –
CC1(C)CCC(C23CC(C)(C2)C3)=C(CN2CCN(c3ccc(C(=O)NS(=O)(=O)c4ccc(N[C@H](CCN5CCC(O)CC5)CSc5ccccc5)c(S(=O)(=O)C(F)(F)F)c4)cc3)CC2)C1 [Example 48, (R)-4-(4-((5,5-dimethyl-2-(3-methylbicyclo[1.1.1]pentan-1-yl)cyclohex-1-enyl)methyl)piperazin-1-yl)-N-(4-(4-(4-hydroxypiperidin-1-yl)-1-(phenylthio)butan-2-ylamino)-3-(trifluoromethylsulfonyl)phenylsulfonyl)benzamide] | 10 to 100 nM | 10 to 100 nM | – | – | 100 to 1000 nM | < 10 nM | < 10 nM | –
CN(CCO)CC[C@H](CSc1ccccc1)Nc1ccc(S(=O)(=O)NC(=O)c2ccc(N3CCN(CC4=C(C56CC(C)(C5)C6)CC(C)(C)CC4)CC3)cc2)cc1S(=O)(=O)C(F)(F)F [Example 49, (R)-4-(4-((4,4-dimethyl-2-(3-methylbicyclo[1.1.1]pentan-1-yl)cyclohex-1-en-1-yl)methyl)piperazin-1-yl)-N-((4-((4-((2-hydroxyethyl)(methyl)amino)-1-(phenylthio)butan-2-yl)amino)-3-((trifluoromethyl)sulfonyl)phenyl)sulfonyl)benzamide] | – | – | ≤ 10 nM | ≤ 10 nM | 100 to 1000 nM | – | – | –
CCC12CC(C3=C(CN4CCN(c5ccc(C(=O)NS(=O)(=O)c6ccc(N[C@H](CCN(C)CCO)CSc7ccccc7)c(S(=O)(=O)C(F)(F)F)c6)cc5)CC4)CCC(C)(C)C3)(C1)C2 [Example 50, (R)-4-(4-((2-(3-Ethylbicyclo[1.1.1]pentan-1-yl)-4,4-dimethylcyclohex-1-en-1-yl)methyl)piperazin-1-yl)-N-((4-((4-((2-hydroxyethyl)(methyl)amino)-1-(phenylthio)butan-2-yl)amino)-3-((trifluoromethyl)sulfonyl)phenyl)sulfonyl)benzamide] | – | – | ≤ 10 nM | ≤ 10 nM | 100 to 1000 nM | – | – | –
CC1(C)CCC(CN2CCN(c3ccc(C(=O)NS(=O)(=O)c4ccc(N[C@H](CCN5CCOCC5)CSc5ccccc5)c(S(=O)(=O)C(F)(F)F)c4)cc3)CC2)=C(C23CC(C(F)F)(C2)C3)C1 [Example 55, (R)-4-(4-((2-(3-(difluoromethyl)bicyclo[1.1.1]pentan-1-yl)-4,4-dimethylcyclohex-1-en-1-yl)methyl)piperazin-1-yl)-N-((4-((4-morpholino-1-(phenylthio)butan-2-yl)amino)-3-((trifluoromethyl)sulfonyl)phenyl)sulfonyl)benzamide] | – | – | ≤ 10 nM | ≤ 10 nM | 100 to 1000 nM | – | – | –
CC1(C)CCC(CN2CCN(c3ccc(C(=O)NS(=O)(=O)c4ccc(N[C@H](CCN5CCOCC5)CSc5ccccc5)c([N+](=O)[O-])c4)cc3)CC2)=C(C23CC(C(F)F)(C2)C3)C1 [Example 58, (R)-4-(4-((2-(3-(difluoromethyl)bicyclo[1.1.1]pentan-1-yl)-4,4-dimethylcyclohex-1-en-1-yl)methyl)piperazin-1-yl)-N-((4-((4-morpholino-1-(phenylthio)butan-2-yl)amino)-3-nitrophenyl)sulfonyl)benzamide] | – | – | ≤ 10 nM | ≤ 10 nM | 100 to 1000 nM | – | – | –
CN(C)CC[C@H](CSc1ccccc1)Nc1ccc(S(=O)(=O)NC(=O)c2ccc(N3CCN(CC4=C(C56CC(C)(C5)C6)CC(C)(C)CC4)CC3)cc2)cc1S(=O)(=O)C(F)(F)F [Example 59, (R)-4-(4-((4,4-dimethyl-2-(3-methylbicyclo[1.1.1]pentan-1-yl)cyclohex-1-en-1-yl)methyl)piperazin-1-yl)-N-((4-((4-(dimethylamino)-1-(phenylthio)butan-2-yl)amino)-3-((trifluoromethyl)sulfonyl)phenyl)sulfonyl)benzamide] | – | – | ≤ 10 nM | ≤ 10 nM | 100 to 1000 nM | – | – | 500 to 1000 nM
CN(CCO)CC[C@H](CSc1ccccc1)Nc1ccc(S(=O)(=O)NC(=O)c2ccc(N3CCN(CC4=C(C56CC(C(F)F)(C5)C6)CC(C)(C)CC4)CC3)cc2)cc1S(=O)(=O)C(F)(F)F [Example 60, (R)-4-(4-((2-(3-(difluoromethyl)bicyclo[1.1.1]pentan-1-yl)-4,4-dimethylcyclohex-1-en-1-yl)methyl)piperazin-1-yl)-N-((4-((4-((2-hydroxyethyl)(methyl)amino)-1-(phenylthio)butan-2-yl)amino)-3-((trifluoromethyl)sulfonyl)phenyl)sulfonyl)benzamide] | – | – | ≤ 10 nM | ≤ 10 nM | < 100 nM | – | – | 500 to 1000 nM
O=C(NS(=O)(=O)c1ccc(N[C@H](CCN2CCC(O)CC2)CSc2ccccc2)c(S(=O)(=O)C(F)(F)F)c1)c1ccc(N2CCN(CC3=C(C45CC(C(F)F)(C4)C5)CC4(CCC4)CC3)CC2)cc1 [Example 67, (R)-4-(4-((6-(3-(difluoromethyl)bicyclo[1.1.1]pentan-1-yl)spiro[3.5]non-6-en-7-yl)methyl)piperazin-1-yl)-N-((4-((4-(4-hydroxypiperidin-1-yl)-1-(phenylthio)butan-2-yl)amino)-3-((trifluoromethyl)sulfonyl)phenyl)sulfonyl)benzamide] | – | – | ≤ 10 nM | ≤ 10 nM | 100 to 1000 nM | – | – | –
CC1(C)CCC(CN2CCN(c3ccc(C(=O)NS(=O)(=O)c4ccc(N[C@H](CCN5CCN(CCO)CC5)CSc5ccccc5)c(S(=O)(=O)C(F)(F)F)c4)cc3)CC2)=C(C23CC(C(F)F)(C2)C3)C1 [Example 69, (R)-4-(4-((2-(3-(difluoromethyl)bicyclo[1.1.1]pentan-1-yl)-4,4-dimethylcyclohex-1-en-1-yl)methyl)piperazin-1-yl)-N-((4-((4-(4-(2-hydroxyethyl)piperazin-1-yl)-1-(phenylthio)butan-2-yl)amino)-3-((trifluoromethyl)sulfonyl)phenyl)sulfonyl)benzamide] | – | – | ≤ 10 nM | ≤ 10 nM | – | – | – | 500 to 1000 nM
